{"source": "PubChem BioAssay AID1259407", "about": "(Chemical Carcinogenesis Research Information System (CCRIS), 2018)", "system": "CCRIS mutagenicity, Ames/micronucleus/aberration tests", "assay": "CCRIS mutagenicity studies", "key": {"[1]": {"conditions": "Test System: AMES SALMONELLA TYPHIMURIUM, Strain/Indicator: TA98, Metabolic Activation: NONE, Method: STANDARD PLATE"}, "[2]": {"conditions": "Test System: AMES SALMONELLA TYPHIMURIUM, Strain/Indicator: TA98, Metabolic Activation: RAT, LIVER, S-9, PHENOBARBITAL, Method: STANDARD PLATE"}, "[3]": {"conditions": "Test System: AMES SALMONELLA TYPHIMURIUM, Strain/Indicator: TA100, Metabolic Activation: NONE, Method: STANDARD PLATE"}, "[4]": {"conditions": "Test System: AMES SALMONELLA TYPHIMURIUM, Strain/Indicator: TA1538, Metabolic Activation: RAT, LIVER, S-9, AROCLOR 1254, Method: STANDARD PLATE"}, "[5]": {"conditions": "Test System: Mouse lymphoma, Strain/Indicator: L5178Y (tk+/tk-), Metabolic Activation: None, Method: Suspension/plate"}, "[6]": {"conditions": "Test System: Mouse lymphoma, Strain/Indicator: L5178Y (tk+/tk-), Metabolic Activation: Rat, Liver, S-9, Aroclor 1254, Method: Suspension/plate"}}, "note": "Calls of active or inactive are those of the source. How the calls were made is not given here."}
{"compound": "Nc1cc(S(=O)(=O)O)cc2c1C(=O)/C(=N/Nc1ccc(-c3ccc(N/N=C4/C(=O)c5c(N)cc(S(=O)(=O)O)cc5C=C4S(=O)(=O)O)cc3)cc1)C(S(=O)(=O)O)=C2", "values": [{"measurement": "mutagenic call", "setting": "End Point: IN VITRO CHROMOSOMAL ABERRATIONS, Test System: CHINESE HAMSTER OVARY CELLS, Metabolic Activation: NONE", "value": "inactive; negative"}, {"measurement": "mutagenic call", "setting": "End Point: IN VITRO CHROMOSOMAL ABERRATIONS, Test System: CHINESE HAMSTER OVARY CELLS, Metabolic Activation: RAT, LIVER, S-9, AROCLOR 1254", "value": "inactive; negative"}, {"measurement": "mutagenic call", "setting": "Test System: AMES SALMONELLA TYPHIMURIUM, Strain/Indicator: TA98, Metabolic Activation: HAMSTER, LIVER, S-9, Method: PREINCUBATION (PRIVAL METHOD)", "value": "active; positive"}, {"measurement": "mutagenic call", "setting": "[1]", "value": "inactive; negative"}, {"measurement": "mutagenic call", "setting": "[2]", "value": "inactive; negative"}, {"measurement": "mutagenic call", "setting": "Test System: AMES SALMONELLA TYPHIMURIUM, Strain/Indicator: TA100, Metabolic Activation: HAMSTER, LIVER, S-9, Method: PREINCUBATION (PRIVAL METHOD)", "value": "active; positive"}, {"measurement": "mutagenic call", "setting": "[3]", "value": "active; positive"}, {"measurement": "mutagenic call", "setting": "Test System: AMES SALMONELLA TYPHIMURIUM, Strain/Indicator: TA100, Metabolic Activation: RAT, LIVER, S-9, PHENOBARBITAL, Method: STANDARD PLATE", "value": "inactive; negative"}, {"measurement": "mutagenic call", "setting": "[4]", "value": "inactive; negative"}, {"measurement": "mutagenic call", "setting": "[5]", "value": "inactive; negative"}, {"measurement": "mutagenic call", "setting": "[6]", "value": "inactive; equivocal (previous results negative)"}]}
{"compound": "C=C1CC[C@H]2C[C@@H]1C2(C)C", "values": [{"measurement": "mutagenic call", "setting": "Test System: AMES SALMONELLA TYPHIMURIUM, Strain/Indicator: TA98, Metabolic Activation: HAMSTER, LIVER, S-9, AROCLOR 1254 (2.5-20%), Method: PREINCUBATION", "value": "inactive; negative"}, {"measurement": "mutagenic call", "setting": "Test System: AMES SALMONELLA TYPHIMURIUM, Strain/Indicator: TA98, Metabolic Activation: HAMSTER, LIVER, S-9, AROCLOR 1254, Method: STANDARD PLATE", "value": "inactive; negative"}, {"measurement": "mutagenic call", "setting": "[1]", "value": "inactive; negative"}, {"measurement": "mutagenic call", "setting": "Test System: AMES SALMONELLA TYPHIMURIUM, Strain/Indicator: TA98, Metabolic Activation: RAT, LIVER, S-9, AROCLOR 1254, Method: STANDARD PLATE", "value": "inactive; negative"}, {"measurement": "mutagenic call", "setting": "Test System: AMES SALMONELLA TYPHIMURIUM, Strain/Indicator: TA100, Metabolic Activation: HAMSTER, LIVER, S-9, AROCLOR 1254 (2.5-20%), Method: PREINCUBATION", "value": "inactive; negative"}, {"measurement": "mutagenic call", "setting": "Test System: AMES SALMONELLA TYPHIMURIUM, Strain/Indicator: TA100, Metabolic Activation: HAMSTER, LIVER, S-9, AROCLOR 1254, Method: STANDARD PLATE", "value": "inactive; negative"}, {"measurement": "mutagenic call", "setting": "[3]", "value": "inactive; negative"}, {"measurement": "mutagenic call", "setting": "Test System: AMES SALMONELLA TYPHIMURIUM, Strain/Indicator: TA100, Metabolic Activation: RAT, LIVER, S-9, AROCLOR 1254, Method: STANDARD PLATE", "value": "inactive; negative"}, {"measurement": "mutagenic call", "setting": "Test System: AMES SALMONELLA TYPHIMURIUM, Strain/Indicator: TA102, Metabolic Activation: HAMSTER, LIVER, S-9, AROCLOR 1254, Method: PREINCUBATION", "value": "inactive; negative"}, {"measurement": "mutagenic call", "setting": "Test System: AMES SALMONELLA TYPHIMURIUM, Strain/Indicator: TA102, Metabolic Activation: NONE, Method: PREINCUBATION", "value": "inactive; negative"}, {"measurement": "mutagenic call", "setting": "Test System: AMES SALMONELLA TYPHIMURIUM, Strain/Indicator: TA102, Metabolic Activation: RAT, LIVER, S-9, AROCLOR 1254, Method: PREINCUBATION", "value": "inactive; negative"}, {"measurement": "mutagenic call", "setting": "Test System: AMES SALMONELLA TYPHIMURIUM, Strain/Indicator: TA1535, Metabolic Activation: HAMSTER, LIVER, S-9, AROCLOR 1254, Method: STANDARD PLATE", "value": "inactive; negative"}, {"measurement": "mutagenic call", "setting": "Test System: AMES SALMONELLA TYPHIMURIUM, Strain/Indicator: TA1535, Metabolic Activation: NONE, Method: STANDARD PLATE", "value": "inactive; negative"}, {"measurement": "mutagenic call", "setting": "Test System: AMES SALMONELLA TYPHIMURIUM, Strain/Indicator: TA1535, Metabolic Activation: RAT, LIVER, S-9, AROCLOR 1254, Method: STANDARD PLATE", "value": "inactive; negative"}, {"measurement": "mutagenic call", "setting": "Test System: AMES SALMONELLA TYPHIMURIUM, Strain/Indicator: TA1537, Metabolic Activation: HAMSTER, LIVER, S-9, AROCLOR 1254, Method: STANDARD PLATE", "value": "inactive; negative"}, {"measurement": "mutagenic call", "setting": "Test System: AMES SALMONELLA TYPHIMURIUM, Strain/Indicator: TA1537, Metabolic Activation: NONE, Method: STANDARD PLATE", "value": "inactive; negative"}, {"measurement": "mutagenic call", "setting": "Test System: AMES SALMONELLA TYPHIMURIUM, Strain/Indicator: TA1537, Metabolic Activation: RAT, LIVER, S-9, AROCLOR 1254, Method: STANDARD PLATE", "value": "inactive; negative"}, {"measurement": "mutagenic call", "setting": "Test System: AMES SALMONELLA TYPHIMURIUM, Strain/Indicator: TA1538, Metabolic Activation: HAMSTER, LIVER, S-9, AROCLOR 1254, Method: STANDARD PLATE", "value": "inactive; negative"}, {"measurement": "mutagenic call", "setting": "Test System: AMES SALMONELLA TYPHIMURIUM, Strain/Indicator: TA1538, Metabolic Activation: NONE, Method: STANDARD PLATE", "value": "inactive; negative"}, {"measurement": "mutagenic call", "setting": "[4]", "value": "inactive; negative"}, {"measurement": "mutagenic call", "setting": "[5]", "value": "inactive; negative"}, {"measurement": "mutagenic call", "setting": "[6]", "value": "inactive; inconcludive (previous evaluation negative)"}]}
{"compound": "COc1c2ccoc2cc2oc(=O)ccc12", "values": [{"measurement": "mutagenic call", "setting": "[1]", "value": "inactive; negative"}, {"measurement": "mutagenic call", "setting": "[2]", "value": "inactive; negative"}]}
{"compound": "CCCN(CC(C)O)N=O", "note": "(stereo not given)", "values": [{"measurement": "mutagenic call", "setting": "Test System: CHINESE HAMSTER V-79, Strain/Indicator: V-79/OUABAIN, Metabolic Activation: HAMSTER, HEPATOCYTES, Method: CELL-MEDIATED", "value": "active; positive"}]}
{"compound": "CC1(c2ccccc2)C(=O)c2ccccc2N1[O]", "note": "(stereo not given)", "values": [{"measurement": "mutagenic call", "setting": "[1]", "value": "inactive; negative"}, {"measurement": "mutagenic call", "setting": "[3]", "value": "inactive; negative"}, {"measurement": "mutagenic call", "setting": "Test System: AMES SALMONELLA TYPHIMURIUM, Strain/Indicator: TA102, Metabolic Activation: NONE, Method: STANDARD PLATE", "value": "inactive; negative"}]}
{"compound": "CC(=O)OC[C@H]1OC(OC(C)=O)[C@H](NC(=O)N(C)N=O)[C@@H](OC(C)=O)[C@@H]1OC(C)=O", "note": "(stereo not given in full)", "values": [{"measurement": "mutagenic call", "setting": "Test System: CHINESE HAMSTER V-79, Strain/Indicator: V-79/8-AZAGUANINE, Metabolic Activation: NONE, Method: STANDARD PLATE", "value": "active; positive"}]}
